The values that follow are results of earlier work, collected in patent US20210353710A1, “GLP-1R AGONIST AND METHODS OF TREATMENT” (The Johns Hopkins University, priority 2020, published 2021).

The conditions of the series: given twice a day for one month.

Take Exendin-4: the “effect on blood glucose in humans” value is given as “hypoglycemic effect”.
